Test results published in US7241771B2, “Oxepane isomer of 42-O-(2-hydroxy)ethyl-rapamycin” (Wyeth, priority 2005, dated 2007).
Values after ≈ are worked out from the molar mass of the structure shown.

How the values were obtained:
Assay in all cases: Antifungal activity, microtiter MIC
Assay type in all cases: cell-based
Aspergillus flavusr = Aspergillus flavusr strain S506; RPMI 1640, 35° C., 24–48 hours
Description: (§1) Antifungal activity for the compound of this invention was established by evaluation against several strains of fungi. Briefly, the following procedure was used to evaluate such activity. A 96 well microtiter plate was filled (50 μL/well) with RPMI 1640. The compounds to be evaluated were placed in appropriate wells and serial diluted in successive wells to provide several dilutions. The concentrations ranged from […]. An adjusted inoculum of fungi (50 μL) was added to each well and plates were incubated at 35° C. for 24–48 hours.

Aspergillus fumigatus = Aspergillus fumigatus strain ATCC 26933, RPMI 1640, 35° C., 24–48 hours
Description: as §1

Aspergillus niger = Aspergillus niger strain ATCC 16404, RPMI 1640, 35° C., 24–48 hours
Description: as §1

Candida albicans = conditions: RPMI 1640, 35° C., 24–48 hours; for MIC: Candida albicans
Description: as §1

Candida krussii = Candida krussii strain 94-2; RPMI 1640, 35° C., 24–48 hours
Description: as §1

Candida lusitaniae = Candida lusitaniae strain 94-3, RPMI 1640, 35° C., 24–48 hours
Description: as §1

Candida parapsilosis = conditions: RPMI 1640, 35° C., 24–48 hours; for MIC: Lodderomyces parapsilosis
Description: as §1

Candida pseudotropicalis = Candida pseudotropicalis strain ATCC 28838, RPMI 1640, 35° C., 24–48 hours
Description: as §1

Candida rugosa = Candida rugosa strain 94-10, RPMI 1640, 35° C., 24–48 hours
Description: as §1

Candida tropicalis = conditions: RPMI 1640, 35° C., 24–48 hours
Description: as §1

Candida zeylanoided = Candida zeylanoided strain 94-15; RPMI 1640, 35° C., 24–48 hours
Description: as §1

[1] = Candida albicans strain ATCC 90028
[2] = Candida parapsilosis strain 94-8
[3] = Candida parapsilosis strain 94-9
[4] = Candida parapsilosis strain ATCC 90018
[5] = Candida tropicalis strain 94-13
[6] = Candida tropicalis strain 94-14

Row | SMILES | Antifungal Activity (MIC) (Aspergillus flavusr) [µg/mL] | Antifungal Activity (MIC) (Aspergillus fumigatus) [µg/mL] | Antifungal Activity (MIC) (Aspergillus niger) [µg/mL] | Antifungal Activity (MIC) (Candida albicans; Candida albicans strain 94-1) [µg/mL] | Antifungal Activity (MIC) (Candida albicans; Candida albicans strain 1063) | Antifungal Activity (MIC) (Candida albicans; Candida albicans strain 1117) | Antifungal Activity (MIC) (Candida albicans; [1]) [µg/mL] | Antifungal Activity (MIC) (Candida krussii) [µg/mL] | Antifungal Activity (MIC) (Candida lusitaniae) [µg/mL] | Antifungal Activity (MIC) (Candida parapsilosis; [2]) | Antifungal Activity (MIC) (Candida parapsilosis; [3]) [µg/mL] | Antifungal Activity (MIC) (Candida parapsilosis; [4]) | Antifungal Activity (MIC) (Candida pseudotropicalis) | Antifungal Activity (MIC) (Candida rugosa) [µg/mL] | Antifungal Activity (MIC) (Candida tropicalis; [5]) [µg/mL] | Antifungal Activity (MIC) (Candida tropicalis; [6]) [µg/mL] | Antifungal Activity (MIC) (Candida zeylanoided) [µg/mL] | also measured
1 | C[C@@H]1[C@H](O)[C@@H](C)/C=C/C=C/C=C/C=C/C=C/C=C/C=C/[C@H](O[C@@H]2O[C@H](C)[C@@H](O)[C@H](N)[C@@H]2O)C[C@@H]2O[C@](O)(C[C@@H](O)C[C@@H](O)[C@H](O)CC[C@@H](O)C[C@@H](O)CC(=O)O[C@H]1C)C[C@H](O)[C@H]2C(=O)O [Amphotericin B] | 0.50 | 0.25 | 0.25 | 0.125 | ≦0.06 μg/mL | ≦0.06 μg/mL | 0.125 | 0.125 | 0.125 | ≦0.06 μg/mL | 0.125 | ≦0.06 μg/mL | ≦0.06 μg/mL | 0.25 | 0.125 | 0.125 | 0.25 | 
2 | COC1CC2CCC(C)C(=O)C(O)(O2)C(=O)N2CCCCC2C(=O)OC(C(C)CC2CCC(OCCO)C(OC)C2)CC(=O)C(C)/C=C(\C)C(O)C(OC)C(=O)C(C)CC(C)/C=C/C=C/C=C/1C (stereo not drawn) [Compound, 1,17-dihydroxy-11-{2-[4-(2-hydroxy-ethoxy)-3-methoxy-cyclohexyl]-1methyl-ethyl}-18,29-dimethoxy-14,16,20,22,28,34-hexamethyl-10,36-dioxa-3-aza-tricyclo[29.4.1.0˜3,8]hexatriaconta-15,23,25,27-tetraen-2,9,13,19,35-pentaone] |  |  |  |  |  |  |  |  |  | 0.125 µg/mL |  |  |  |  | 0.125 |  |  | MIC (Aspergillus flavusr): 8 µg/mL (≈ 8.35 µM); MIC (Aspergillus fumigatus; ATCC26933): 32 µg/mL (≈ 33.4 µM); MIC (Aspergillus niger; ATCC16404): 8 µg/mL (≈ 8.35 µM); MIC (Candida albicans; ATCC90028, Candida albicans strain ATCC 90028): 0.125 µg/mL (≈ 0.13 µM); MIC (Candida albicans; Candida albicans strain 94-1): 0.25 µg/mL (≈ 0.261 µM); MIC (Candida albicans; Candida albicans strain 1063): ≤ 0.06 µg/mL; MIC (Candida albicans; Candida albicans strain 1117): 0.125 µg/mL (≈ 0.13 µM); MIC (Candida krussii): 0.5 µg/mL (≈ 0.522 µM); MIC (Candida lusitaniae; Clavispora lusitaniae): ≤ 0.06 µg/mL; MIC (Candida parapsilosis; ATCC90018, Candida parapsilosis strain ATCC 90018): 0.25 µg/mL (≈ 0.261 µM); MIC (Candida parapsilosis; [3]): 0.125 µg/mL (≈ 0.13 µM); MIC (Candida pseudotropicalis; Kluyveromyces marxianus, ATCC28838): ≤ 0.06 µg/mL; MIC (Candida rugosa; Diutina rugosa): 0.25 µg/mL (≈ 0.261 µM); MIC (Candida tropicalis; [6]): 0.125 µg/mL (≈ 0.13 µM); MIC (Candida zeylanoided): ≤ 0.06 µg/mL
3 | C[C@@H]1[C@H](O)[C@@H](C)/C=C/C=C/CC/C=C/C=C/C=C/C=C/C(O[C@H]2O[C@H](C)[C@@H](O)[C@H](N)[C@@H]2O)CC2O[C@](O)(CC(O)C(O)CCC(O)CC(O)CC(O)CC(=O)O[C@H]1C)CC(O)C2C(=O)O (stereo partly drawn) [Nystatin] | 2 | 2 | 1 | 2 | 1 µg/mL | 1 µg/mL | 1 | 1 | 1 | 2 µg/mL | 1 | 2 µg/mL | 1 µg/mL | 1 | 1 | 2 | 1 | 
